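Following 48 hours of exposure in 96-well plates, responses at five concentrations were used to interpolate endpoints linearly. The concentration for full growth arrest is given as TGI.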
Assays:
Assay in all cases: growth of human tumour cells (NCI), 48 h
KM12 colon = system: KM12 colon
K-562 leukemia = system: K-562 leukemia
CCRF-CEM leukemia = system: CCRF-CEM leukemia
786-0 renal = system: 786-0 renal
CAKI-1 renal = system: CAKI-1 renal
HCT-15 colon = system: HCT-15 colon
OVCAR-4 ovarian = system: OVCAR-4 ovarian
OVCAR-5 ovarian = system: OVCAR-5 ovarian
HCT-116 colon = system: HCT-116 colon
HS 578T breast = system: HS 578T breast
A549 NSCLC = system: A549 NSCLC
NCI-H23 lung = system: NCI-H23 lung
NCI/ADR-RES ovarian = system: NCI/ADR-RES ovarian
DU-145 prostate = system: DU-145 prostate
TK-10 renal = system: TK-10 renal
M14 melanoma = system: M14 melanoma
ACHN renal = system: ACHN renal
UACC-257 melanoma = system: UACC-257 melanoma
U251 CNS = system: U251 CNS
RXF 393 renal = system: RXF 393 renal
IGROV1 ovarian = system: IGROV1 ovarian
RPMI-8226 leukemia = system: RPMI-8226 leukemia
SR leukemia = system: SR leukemia
SF-295 CNS = system: SF-295 CNS
HOP-62 NSCLC = system: HOP-62 NSCLC
NCI-H522 lung = system: NCI-H522 lung
HL-60(TB) leukemia = system: HL-60(TB) leukemia
MOLT-4 leukemia = system: MOLT-4 leukemia
SK-MEL-2 melanoma = system: SK-MEL-2 melanoma
A498 renal = system: A498 renal
SK-OV-3 ovarian = system: SK-OV-3 ovarian
EKVX NSCLC = system: EKVX NSCLC
NCI-H226 lung = system: NCI-H226 lung
HT29 colon = system: HT29 colon
OVCAR-3 ovarian = system: OVCAR-3 ovarian
PC-3 prostate = system: PC-3 prostate
MDA-MB-231 breast = system: MDA-MB-231 breast
T-47D breast = system: T-47D breast
OVCAR-8 ovarian = system: OVCAR-8 ovarian
LOX IMVI melanoma = system: LOX IMVI melanoma
SW-620 colon = system: SW-620 colon
SK-MEL-5 melanoma = system: SK-MEL-5 melanoma
COLO 205 colon = system: COLO 205 colon
UACC-62 melanoma = system: UACC-62 melanoma
SN12C renal = system: SN12C renal
MDA-MB-435 = system: MDA-MB-435
HCC-2998 colon = system: HCC-2998 colon
SK-MEL-28 melanoma = system: SK-MEL-28 melanoma
SF-539 CNS = system: SF-539 CNS
MDA-N = system: MDA-N
NCI-H460 lung = system: NCI-H460 lung
MCF7 breast = system: MCF7 breast
SNB-19 CNS = system: SNB-19 CNS
SF-268 CNS = system: SF-268 CNS
BT-549 breast = system: BT-549 breast
MALME-3M melanoma = system: MALME-3M melanoma
HOP-92 NSCLC = system: HOP-92 NSCLC

Cc1cccc(NC(=O)CCl)c1
TGI (KM12 colon): > 10 µM | TGI (K-562 leukemia): > 10 µM | TGI (CCRF-CEM leukemia): 8.83 µM | TGI (786-0 renal): > 10 µM | TGI (CAKI-1 renal): > 10 µM | TGI (HCT-15 colon): > 10 µM | TGI (OVCAR-4 ovarian): 8.18 µM | TGI (OVCAR-5 ovarian): > 10 µM | TGI (HCT-116 colon): > 10 µM | TGI (HS 578T breast): > 10 µM | TGI (A549 NSCLC): > 10 µM | TGI (NCI-H23 lung): > 10 µM | TGI (NCI/ADR-RES ovarian): > 10 µM | TGI (DU-145 prostate): > 10 µM | TGI (TK-10 renal): > 10 µM | TGI (M14 melanoma): > 10 µM | TGI (ACHN renal): > 10 µM | TGI (UACC-257 melanoma): > 10 µM | TGI (U251 CNS): 5.64 µM | TGI (RXF 393 renal): > 10 µM | TGI (IGROV1 ovarian): > 10 µM | TGI (RPMI-8226 leukemia): > 10 µM | TGI (SR leukemia): > 10 µM | TGI (SF-295 CNS): > 10 µM | TGI (HOP-62 NSCLC): > 10 µM | TGI (NCI-H522 lung): 4.32 µM | TGI (HL-60(TB) leukemia): > 10 µM | TGI (MOLT-4 leukemia): > 10 µM | TGI (SK-MEL-2 melanoma): > 10 µM | TGI (A498 renal): > 10 µM | TGI (SK-OV-3 ovarian): > 10 µM | TGI (EKVX NSCLC): > 10 µM | TGI (NCI-H226 lung): > 10 µM | TGI (HT29 colon): > 10 µM | TGI (OVCAR-3 ovarian): > 10 µM | TGI (PC-3 prostate): > 10 µM | TGI (MDA-MB-231 breast): > 10 µM | TGI (T-47D breast): > 10 µM | TGI (OVCAR-8 ovarian): > 10 µM | TGI (LOX IMVI melanoma): > 10 µM | TGI (SW-620 colon): > 10 µM | TGI (SK-MEL-5 melanoma): > 10 µM | TGI (COLO 205 colon): > 10 µM | TGI (UACC-62 melanoma): > 10 µM | TGI (SN12C renal): > 10 µM | TGI (MDA-MB-435): > 10 µM | TGI (HCC-2998 colon): > 10 µM | TGI (SK-MEL-28 melanoma): > 10 µM | TGI (SF-539 CNS): > 10 µM | TGI (MDA-N): > 10 µM | TGI (NCI-H460 lung): > 10 µM | TGI (MCF7 breast): > 10 µM | TGI (SNB-19 CNS): > 10 µM | TGI (SF-268 CNS): > 10 µM | TGI (BT-549 breast): > 10 µM | TGI (MALME-3M melanoma): > 10 µM

CN(C)/C=C(\C(=O)c1ccccc1)n1nc(-c2ccccc2)cc1-c1ccccc1
TGI (KM12 colon): > 10 µM | TGI (CCRF-CEM leukemia): > 10 µM | TGI (786-0 renal): > 10 µM | TGI (CAKI-1 renal): > 10 µM | TGI (HCT-15 colon): > 10 µM | TGI (OVCAR-4 ovarian): > 10 µM | TGI (OVCAR-5 ovarian): > 10 µM | TGI (HCT-116 colon): > 10 µM | TGI (HS 578T breast): > 10 µM | TGI (A549 NSCLC): > 10 µM | TGI (NCI-H23 lung): > 10 µM | TGI (NCI/ADR-RES ovarian): > 10 µM | TGI (DU-145 prostate): > 10 µM | TGI (TK-10 renal): > 10 µM | TGI (M14 melanoma): > 10 µM | TGI (ACHN renal): > 10 µM | TGI (UACC-257 melanoma): > 10 µM | TGI (U251 CNS): > 10 µM | TGI (RXF 393 renal): > 10 µM | TGI (IGROV1 ovarian): > 10 µM | TGI (RPMI-8226 leukemia): > 10 µM | TGI (SR leukemia): > 10 µM | TGI (HOP-92 NSCLC): > 10 µM | TGI (SF-295 CNS): > 10 µM | TGI (HOP-62 NSCLC): > 10 µM | TGI (NCI-H522 lung): > 10 µM | TGI (HL-60(TB) leukemia): > 10 µM | TGI (MOLT-4 leukemia): > 10 µM | TGI (SK-MEL-2 melanoma): > 10 µM | TGI (A498 renal): > 10 µM | TGI (SK-OV-3 ovarian): > 10 µM | TGI (EKVX NSCLC): > 10 µM | TGI (NCI-H226 lung): > 10 µM | TGI (HT29 colon): > 10 µM | TGI (OVCAR-3 ovarian): > 10 µM | TGI (PC-3 prostate): > 10 µM | TGI (MDA-MB-231 breast): > 10 µM | TGI (T-47D breast): > 10 µM | TGI (OVCAR-8 ovarian): > 10 µM | TGI (LOX IMVI melanoma): > 10 µM | TGI (SW-620 colon): > 10 µM | TGI (SK-MEL-5 melanoma): > 10 µM | TGI (COLO 205 colon): > 10 µM | TGI (UACC-62 melanoma): > 10 µM | TGI (SN12C renal): > 10 µM | TGI (MDA-MB-435): > 10 µM | TGI (HCC-2998 colon): > 10 µM | TGI (SK-MEL-28 melanoma): > 10 µM | TGI (SF-539 CNS): > 10 µM | TGI (MDA-N): > 10 µM | TGI (NCI-H460 lung): > 10 µM | TGI (MCF7 breast): > 10 µM | TGI (SNB-19 CNS): > 10 µM | TGI (SF-268 CNS): > 10 µM | TGI (BT-549 breast): > 10 µM | TGI (MALME-3M melanoma): > 10 µM

Reference: PubChem BioAssay (NCI)
